Data as given in patent US20070238700A1, “N-PHENYL-1,1,1-TRIFLUOROMETHANESULFONAMIDE HYDRAZONE DERIVATIVE COMPOUNDS AND THEIR USAGE IN CONTROLLING PARASITES” (priority 2006, published 2007).

How the values were obtained:
Ctenocephalides felis [1] = experiment: Ctenocephalides felis adulticide assay: C. felis dose response (LC50)
Description: c) Ctenocephalides felis Adulticide Assay: C. felis Dose Response
The purpose of this example was to determine the LC50 when cat fleas were contacted with a glass surface treated with sample compounds or formulations prepared as described above. […] The test species was the cat flea (Ctenocephalides felis). The strain used was obtained from external suppliers as pupae and held in the laboratory under testing conditions until the adults had emerged. Fifteen (15) fleas were used in a minimum of four replicates for each dose level (total of 60 fleas per dose level). The insects were selected to be in the adult life stage, aged between 3 and 7 days post emergence.
The compounds to be tested were dissolved in acetone just prior to testing. Samples of compounds were stored in a refrigerator (5±1° C.) unless otherwise specified. During the mortality testing, the temperature was maintained at 25±1° C. Humidity was maintained at 75±5%. The base (area=159 mm^2) of a 100 mL glass Erlenmeyer (conical) flask provided the treatment surface. Flasks were pretreated with Coatasil™ glass treatment to maximise bio-availability of test compounds by preventing them from binding to the glass surface.
The base of the 100 mL Erlenmeyer flask was treated with 0.5 mL of test sample in acetone and gently swirled. This volume was sufficient to cover the base of the flask. Flasks were left to dry for 24 hours before flea exposure. Adult cat fleas were lightly anaesthetised by cooling and then placed into a sorting chamber, which allowed fleas to revive and jump into the Erlenmeyer flasks. Fifteen (15) adult cat fleas were collected in each flask. The top of the flasks were then covered in Parafilm™ and small holes made to allow gas exchange. A 0.5 mL volume of acetone was applied to the base of an Erlenmeyer flask and the testing proceeded in the same manner described above. Cat fleas in the treatment containers were held under testing conditions for 24 hours. Mortality resulting from the treatments was recorded at 8 and 24 hours.

Rhipicephalus sanguineus [2] = experiment: Rapid screening protocol for topical application on brown dog ticks (% mortality); settings: data from laboratory 2
Outline: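 Mixed-sex unfed adult ticks each received 1 μL test sample in acetone on the abdomen at a single screening dose chosen above the reference LD90 (fipronil 10 μg/tick), with acetone-only controls; 4 replicates of 10 ticks. Held 24 h at 25±1 °C; ticks unresponsive to light touch over 1 min scored dead, pooled as % mortality.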

Rhipicephalus sanguineus [3] = experiment: Dose response protocol for topical application on brown dog ticks (LD50); settings: 24 h mortality, probit analysis
Method: e) Dose response protocol for topical application on brown dog ticks (Rhipicephalus sanguineus): The test determines the level of insecticidal activity of sample compounds or formulations when applied topically on brown dog ticks. Sample compounds were stored prior to use in a freezer (−5±1° C.), unless otherwise specified.
• Mortality: A tick is defined as dead after it gives no apparent response when touched lightly or gently breathed upon, while observed for 30 seconds. • LD50 (Lethal Dose 50): The dose of a topically applied treatment at which 50% of the dog ticks are killed. • Reference compound: To assess an experimental compound for significant acaricidal activity a single dose level is chosen, which is based upon known results from previous experiments using a commercially available active i.e., a reference compound. The reference compound selected is one in common use, and one that has a similar mode of action against the Brown Dog Tick (i.e., the test species), • Recovery container: A recovery container consists of a 500 ml round plastic container measuring 115 mm diameter and 70 mm height, with a tight fitting lid that has 10 small (˜1 mm) holes inserted for air exchange. A 90 mm diameter piece of filter paper was placed on the bottom of the container and moistened with 1 mL of distilled water.
Adult, mixed sex, Brown Dog Ticks (Rhipicephalus sanguineus) were reared as follows: (i) cultured, (ii) transferred unfed, to a testing laboratory, and (iii) then maintained under controlled conditions (i.e., temp. 18°±2° C., humidity 75±5% RH). The ticks used were selected for vigor prior to testing, i.e., capable of actively walking and responsive to being touched or gently breathed upon.
During the testing, the temperature was maintained at 25±1° C. and the humidity was ambient. Seven dose levels (concentrations) of sample compound, in the form of serial dilutions in acetone, were derived from a pilot study and covered a range that produced very low to very high mortality. Groups of ten ticks were treated topically (on the abdomen) with 1 μL of a single dose level of the sample compound. Each test was replicated four times, i.e., employing a total of 40 ticks per dose level of each sample compound. As a control, ten ticks were treated with solvent only (acetone) for each test. Following the treatment, the ticks were held in recovery containers maintained under appropriate rearing conditions for 24 hours. Mortality resulting from the treatments was recorded at 24 hours. […] Press, London (1971).]

Ctenocephalides felis [4] = test system: Ctenocephalides felis
Outline: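 Adult cat fleas (3–7 days post-emergence), 15 per flask in ≥4 replicates, exposed to a dried acetone residue at 1.26 μg/cm^2 on a Coatasil-treated glass flask base. Held at 25±1° C, 75±5% humidity; mortality (immobile or unable to right) scored at 8, 24 and/or 48 h.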

| Structure (SMILES) | C. felis LC50 (Ctenocephalides felis [1]) | R. sanguineus Mortality (%) 24 h (Rhipicephalus sanguineus [2]) | R. sanguineus LD50 (Rhipicephalus sanguineus [3]) | C. felis Mortality (%) 8 h (Ctenocephalides felis [4]) | C. felis Mortality (%) 24 h (Ctenocephalides felis [4]) |
| --- | --- | --- | --- | --- | --- |
| CC(=NN(C)C(=O)c1ccc(Cl)cc1Cl)c1cc(Cl)ccc1NS(=O)(=O)C(F)(F)F [Compound 62] | 2.2 ppm | 100% | 1.6 μg/tick | 100% | 100% |
| CCN(N=C(C)c1cc(Cl)ccc1NS(=O)(=O)C(F)(F)F)c1cc(Cl)cc(Cl)c1 [Compound 70] | 1.8 ppm | 100% | 4.1 μg/tick | 95% | 100% |
| CCN(N=C(C)c1cc(Cl)ccc1NS(=O)(=O)C(F)(F)F)c1ccc(Cl)c(Cl)c1 [Compound 71] | 2.5 ppm | 98% | 4.2 μg/tick | 94% | 100% |
| CCCN(N=C(C)c1cc(Cl)ccc1NS(=O)(=O)C(F)(F)F)c1cccc(F)c1 [Compound 72] | 1.5 ppm | 100% | 3.1 μg/tick | 100% | 100% |
| CCCN(N=C(C)c1cc(Cl)ccc1NS(=O)(=O)C(F)(F)F)c1ccc(C)cc1 [Compound 73] | 2.1 ppm | 88% | 5.3 μg/tick | 96% | 100% |
| CC(=NN(C)c1cccc(F)c1)c1cc(Cl)ccc1NS(=O)(=O)C(F)(F)F [Compound 74] | 0.76 ppm | 100% | 2.0 μg/tick | 100% | 100% |
| CCN(N=C(C)c1cc(Cl)ccc1NS(=O)(=O)C(F)(F)F)c1cccc(F)c1 [Compound 76] | 0.42 ppm | 98% | 2.1 μg/tick | 100% | 100% |
| CCC(=NN(C)C(=O)c1ccc(Cl)cc1)c1cc(Cl)ccc1NS(=O)(=O)C(F)(F)F [Compound 81] | 2.2 ppm | 100% | 1.49 μg/tick | 100% | 100% |
| CCC(=NN(C)C(=O)c1ccc(Cl)cc1Cl)c1cc(Cl)ccc1NS(=O)(=O)C(F)(F)F [Compound 82] | 2.4 ppm | 100% | 2.0 μg/tick | 98% | 100% |
| CC(=NN(C)c1ccc(Cl)c(Cl)c1)c1cc(Cl)ccc1NS(=O)(=O)C(F)(F)F [Compound 96] | 2.0 ppm | 78% | 3.0 μg/tick | 19% | 99% |
| CC(=NN(C)c1cc(Cl)cc(Cl)c1)c1cc(Cl)ccc1NS(=O)(=O)C(F)(F)F [Compound 99] | 1.9 ppm | 95% | 3.1 μg/tick | 57% | 100% |
| CC(=NN(C)c1cccc(Cl)c1Cl)c1cc(Cl)ccc1NS(=O)(=O)C(F)(F)F [Compound 100] | 1.7 ppm | 70% | 4.0 μg/tick | 55% | 100% |
